Tests used:
db/db mice and DIO mice = assay: Long-term administration, weight loss in db/db mice and DIO mice; type: in vivo, mouse
Wnt signal = assay: TOPFlash reporter gene activity test in HEK293T cells; type: cell-based
Protocol: The HEK293T cells used for the measurement of reporter gene activity were plated at 20 hours before transfection and cultured to about 50% coverage for the transfection. The transfection method was as described above. For HEK293T cells, transfection was performed according to 20 ng TOPFlash, 20 ng GFP and 460 ng lacZ per well, and Wnt3a or Nesfatin-1/NUCB2 protein was added at 18 hours after transfection to stimulate for 6-8 hours, and the cell was lysed with Boehringer Mannheim Luciferase Assay Kit (200 μl/well) for 15 minutes, 50 μl lysate was added in the fluorometer BIO-TEK Synergy2 (Gene Company Limited) to measure the GFP fluorescence intensity in the cell lysate as an internal standard, and then 20 μl luciferase substrate (Roche) was added for the reaction, the luciferase activity was detected in the chemiluminescence channel, and finally the GFP reading was used as an internal standard for homogenization.
We focus on the three small molecules HLY72, HLY103, and HSS49A (FIG. 3a). […] So that the first biochemical experiment design is: whether these three small molecules can compete for the binding of HLY179 to NUCB2 protein.

NUCB2 protein [1] = molecular target: T1, NUCB2 protein (Mus musculus, UniProt P81117); assay: In vitro binding experiment (streptavidin-agarose pull-down, Western blot) of biotin-linked small molecules with full-length NUCB2; details: mouse full-length NUCB2 expressed in E. coli
T1 construct: Immediately the mouse full-length NUCB2 protein expressed in E. coli was purified; His tag (inferred from pET-28A vector, Ni-NTA purification and His antibody); made in house; host or cells: E. coli BL21-CodonPlus (DE3)
T1 sequence (P81117 25-420): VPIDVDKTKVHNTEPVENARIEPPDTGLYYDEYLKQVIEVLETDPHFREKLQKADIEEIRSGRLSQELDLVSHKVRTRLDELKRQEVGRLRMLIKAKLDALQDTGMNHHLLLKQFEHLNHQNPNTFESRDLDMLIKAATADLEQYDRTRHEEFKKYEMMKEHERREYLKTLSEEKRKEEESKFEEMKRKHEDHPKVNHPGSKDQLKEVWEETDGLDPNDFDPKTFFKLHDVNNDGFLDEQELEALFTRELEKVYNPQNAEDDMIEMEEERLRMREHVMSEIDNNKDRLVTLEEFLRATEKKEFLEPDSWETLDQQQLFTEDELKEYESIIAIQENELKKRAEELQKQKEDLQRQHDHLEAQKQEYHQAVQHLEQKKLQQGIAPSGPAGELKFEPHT
Protocol: (§1) When doing the combining experiments, (1) pre-treating Streptavidin-Agarose, washing Streptavidin-Agarose Beads with IP buffer, and spinning it on the rotor for 10 minutes. (2) Re-binding small molecules HLY179 (20 μM) and Streptavidin-Agarose Beads, spinning it in a refrigeration house at 4° C. for 1-2 hours. (3) When the previous step was performed for about 1 hour, the protein was pre-cleared at the same time, and the protein and the washed Streptavidin-Agarose were rotated in a refrigeration house at 4° C. for 30 minutes. (4) the Streptavidin-Agarose Beads binded with HLY179 was centrifuged, the supernatant was removed, washed again with 600 μL of IP buffer (rotated at 4° C. for 3 minutes), centrifuged, and the supernatant was removed carefully. (5) the pre-cleard protein was added and rotated in a refrigeration house at 4° C. for 2 hours. Washd twice with IP buffer 800 μL, 2 minutes each time (all rotated in a refrigeration house at 4° C.). After the last wash, the supernatant was removed, 40 μL of 2*loading was added and cooked for 10 minutes, stored at −20° C. When doing competitive binding experiments, in the third step while pre-treating the protein adding different small molecule compounds, the final concentration was 100 μM, and the rest was the same. Western Blot: Preparing the appropriate concentration of SDS-PAGE gel, adding protein sample for electrophoretic separation. […]

NUCB2 protein [2] = molecular target: T1, NUCB2 protein; assay: Competitive binding experiment: small molecules compete with Bio78 (HLY179) for NUCB2; details: competitor final concentration 100 μM; HLY179 20 μM
Protocol: as §1

normal mice = assay: Food intake of mice after single intraperitoneal injection; type: in vivo, mouse; details: 20 mg/kg intraperitoneal; 0-3 h, 0-6 h, 0-12 h, 0-24 h
Protocol: Mice were intraperitoneally injected with DMSO or HLY72 (dissolved in DMSO) 25 μL within 2 hours before turning off the lamp. During the intragastric experiment, the high concentration of HLY72 dissolved in DMSO was dissolved in 10% cyclodextrin, and the total volume was 100 μL Volume by gavage, so that the final concentration of DMSO was less than 10%. The diet was weighed at the 3rd hour, the 6th hour, the 12th hour, and the 24th hour respectively after the lights out. The corresponding mouse body weight was also weighed at the same time before the daily administration. The fat content of mice was measured with the magnetic resonance fat content measuring instrument of the animal platform in SIBCB.
The next question we are very concerned about is whether HLY78 has similar functions to NUCB2 protein in mice. Up to now, the most classic function reported for NUCB2 protein is to reduce the food intake of mice at night. Therefore, the experiment was designed: 20 mg/kg of HLY78 was injected intraperitoneally within two hours before turning off the lights at night, and then the food intake of the mice was measured at different time points (0-3 h, 0-6 h, 0-12 h, 0-24 h). […] During the three days of the adaptive injection period before HLY78 injection, both groups of mice were injected with DMSO. On the day of injection of HLY78 and the two days before the injection of DMSO, the body weight of the two groups of mice is also the same (FIG. 2b).
Next, two small molecules HLY72 and HLY103 were selected to perform functional experiments on the food intake in mice.

- binding of purified NUCB2 protein to small molecule (NUCB2 protein [1]): specifically binds
- compete with Bio78 for binding to NUCB2 (NUCB2 protein [2]): can compete
SMILES: CCc1cccc2c1N(C)Cc1cc3c(cc1-2)OCO3 [HLY78]
- weight loss effect (db/db mice and DIO mice): good weight loss effect
- activity of Wnt signal activation (Wnt signal): can synergistically activate
- food intake of mice (normal mice): significantly reduce
